US10189845B2, “4,6-substituted-pyrazolo[1,5-a]pyrazines as janus kinase inhibitors” (ARRAY BIOPHARMA INC., priority 2014, dated 2019)
Where a name gives a salt, the structure may show the parent alone. Read-outs that look alike come from different tables or passages of the source.

Legend:
Assay type in all cases: biochemical
JAK1 = JAK1 (Homo sapiens (Human), UniProt P23458); experiment: JAK1 Inhibition Assay (Example B, Omnia kinase fluorescence peptide substrate assay)
Procedure, shortened: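 Kinetic fluorescence read (360 nm excitation, 485 nm emission, every 50 s over 45 min) of Omnia Y12 peptide (8 μM) phosphorylation by 12.5 nM human JAK1 at 1 mM ATP. Buffer: HEPES pH 7.4, MgCl2, Triton X-100, DTT; 2% DMSO. IC50 = concentration giving 50 POC on logistic curve.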

JAK2 = JAK2 (Homo sapiens (Human), UniProt O60674); experiment: JAK2 Inhibition Assay (Example C, Omnia kinase fluorescence peptide substrate assay); conditions: JAK2 Enzyme IC50 1 mM ATP, averaged IC50 ranges
Sequence of JAK2 (O60674 whole entry): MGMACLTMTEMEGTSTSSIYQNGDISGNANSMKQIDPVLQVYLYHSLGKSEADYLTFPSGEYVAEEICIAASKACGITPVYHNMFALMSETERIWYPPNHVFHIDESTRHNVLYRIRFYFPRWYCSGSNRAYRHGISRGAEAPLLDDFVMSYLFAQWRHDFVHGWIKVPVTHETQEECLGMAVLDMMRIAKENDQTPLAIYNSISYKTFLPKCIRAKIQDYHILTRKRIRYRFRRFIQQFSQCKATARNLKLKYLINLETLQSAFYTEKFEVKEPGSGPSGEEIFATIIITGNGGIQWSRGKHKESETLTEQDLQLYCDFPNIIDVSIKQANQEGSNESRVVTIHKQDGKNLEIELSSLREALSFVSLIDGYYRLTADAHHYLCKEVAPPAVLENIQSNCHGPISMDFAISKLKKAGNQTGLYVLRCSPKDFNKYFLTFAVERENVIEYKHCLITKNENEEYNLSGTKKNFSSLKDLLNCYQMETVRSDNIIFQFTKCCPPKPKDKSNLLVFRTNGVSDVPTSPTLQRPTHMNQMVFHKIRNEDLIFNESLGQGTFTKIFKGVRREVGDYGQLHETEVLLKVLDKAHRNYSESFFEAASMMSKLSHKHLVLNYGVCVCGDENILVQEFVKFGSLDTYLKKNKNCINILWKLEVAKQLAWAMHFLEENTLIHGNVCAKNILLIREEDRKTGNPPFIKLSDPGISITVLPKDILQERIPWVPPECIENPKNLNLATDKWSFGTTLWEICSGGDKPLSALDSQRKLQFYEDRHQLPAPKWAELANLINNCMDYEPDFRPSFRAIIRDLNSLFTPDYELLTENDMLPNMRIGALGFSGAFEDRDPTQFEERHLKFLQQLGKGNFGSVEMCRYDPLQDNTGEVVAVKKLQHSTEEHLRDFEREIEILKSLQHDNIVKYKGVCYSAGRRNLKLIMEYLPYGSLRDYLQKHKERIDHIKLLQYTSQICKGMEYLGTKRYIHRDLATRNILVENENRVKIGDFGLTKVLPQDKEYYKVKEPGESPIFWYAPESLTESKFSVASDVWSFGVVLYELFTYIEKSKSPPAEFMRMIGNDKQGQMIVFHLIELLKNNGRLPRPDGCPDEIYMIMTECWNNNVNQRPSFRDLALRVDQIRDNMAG
Procedure, shortened: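 Kinetic fluorescence read of Omnia Y7 peptide (10 μM) phosphorylation, ex 360/em 485 nm every 50 s over 45 min, by 4 nM JAK2 at 1 mM ATP. Buffer 25 mM HEPES pH 7.4, 10 mM MgCl2, 0.01% Triton X-100, 1 mM DTT; final DMSO 2%. Percent-of-control values fitted by 4-parameter logistic for IC50.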

JAK3 = JAK3 (Homo sapiens (Human), UniProt P52333); experiment: JAK3 Inhibition Assay (Example D, Omnia kinase fluorescence peptide substrate assay)
Sequence of JAK3 (P52333 whole entry): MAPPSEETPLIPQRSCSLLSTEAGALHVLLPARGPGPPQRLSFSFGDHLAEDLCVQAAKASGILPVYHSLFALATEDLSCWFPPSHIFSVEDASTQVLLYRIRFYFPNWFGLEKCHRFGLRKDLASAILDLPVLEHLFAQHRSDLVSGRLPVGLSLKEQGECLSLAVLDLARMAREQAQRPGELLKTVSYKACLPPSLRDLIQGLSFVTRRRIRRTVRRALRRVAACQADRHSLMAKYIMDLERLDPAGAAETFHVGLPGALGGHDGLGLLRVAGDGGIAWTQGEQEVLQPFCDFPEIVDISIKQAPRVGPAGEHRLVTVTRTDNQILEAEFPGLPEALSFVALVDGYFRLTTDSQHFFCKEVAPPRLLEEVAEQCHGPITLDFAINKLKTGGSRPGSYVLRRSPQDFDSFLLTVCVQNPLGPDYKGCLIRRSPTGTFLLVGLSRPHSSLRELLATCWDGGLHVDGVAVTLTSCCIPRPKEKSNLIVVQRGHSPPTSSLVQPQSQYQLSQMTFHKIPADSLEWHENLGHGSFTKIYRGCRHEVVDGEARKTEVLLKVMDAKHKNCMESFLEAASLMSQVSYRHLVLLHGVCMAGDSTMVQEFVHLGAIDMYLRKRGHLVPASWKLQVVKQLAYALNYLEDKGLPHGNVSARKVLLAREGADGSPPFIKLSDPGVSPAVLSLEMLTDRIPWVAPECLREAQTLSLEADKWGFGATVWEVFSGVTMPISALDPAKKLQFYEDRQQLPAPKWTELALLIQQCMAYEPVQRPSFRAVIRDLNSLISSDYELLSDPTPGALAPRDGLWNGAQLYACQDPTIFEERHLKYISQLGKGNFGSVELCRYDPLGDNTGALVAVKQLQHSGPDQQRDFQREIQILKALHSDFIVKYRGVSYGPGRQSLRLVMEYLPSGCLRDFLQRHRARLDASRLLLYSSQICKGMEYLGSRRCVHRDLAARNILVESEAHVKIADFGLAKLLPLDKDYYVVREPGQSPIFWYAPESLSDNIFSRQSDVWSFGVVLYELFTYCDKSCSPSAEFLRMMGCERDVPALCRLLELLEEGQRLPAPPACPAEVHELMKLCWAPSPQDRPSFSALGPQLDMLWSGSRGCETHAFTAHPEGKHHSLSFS
Procedure, shortened: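 Omnia Sox-peptide kinetic read (ex 360 nm, em 485 nm, every 50 s over 45 min) tracked phosphorylation of 10 μM Y7 peptide by 2 nM recombinant JAK3 at 1 mM ATP. Buffer: 25 mM HEPES pH 7.4, 10 mM MgCl2, 0.01% Triton X-100, 1 mM DTT, with 2% DMSO final.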

Human Tyk2 kinase domain = Human Tyk2 kinase domain (Homo sapiens (Human), UniProt P29597); experiment: Tyk2 Inhibition Assay (Example A, Omnia kinase fluorescence peptide substrate assay); conditions: TYK2 Enzyme IC50 1 mM ATP, averaged IC50 ranges
Sequence of Human Tyk2 kinase domain (P29597 886-1187): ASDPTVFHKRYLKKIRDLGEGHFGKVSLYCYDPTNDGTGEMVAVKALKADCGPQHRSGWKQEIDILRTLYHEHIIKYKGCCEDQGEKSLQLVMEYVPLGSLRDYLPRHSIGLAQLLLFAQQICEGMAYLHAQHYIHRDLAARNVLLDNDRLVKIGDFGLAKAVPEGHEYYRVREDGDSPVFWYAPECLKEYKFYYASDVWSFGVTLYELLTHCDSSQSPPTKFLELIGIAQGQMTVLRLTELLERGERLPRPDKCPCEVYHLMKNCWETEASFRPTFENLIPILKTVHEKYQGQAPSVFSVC
Procedure, shortened: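 IC50 values come from a 4-parameter logistic fit of percent-of-control data, with compounds at 2% final DMSO. Reactions held 1 nM His-tag-cleaved Tyk2 (aa 886–1187), 8 μM Omnia Y12 peptide and 1 mM ATP in pH 7.4 HEPES buffer with 10 mM MgCl2, Triton X-100 and DTT. Sox fluorescence (360/485 nm) was monitored kinetically over 45 min.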

[1] = JAK1 Enzyme IC50 1 mM ATP, 1 mM ATP, averaged IC50 ranges

Sequence of JAK1 (P23458 whole entry): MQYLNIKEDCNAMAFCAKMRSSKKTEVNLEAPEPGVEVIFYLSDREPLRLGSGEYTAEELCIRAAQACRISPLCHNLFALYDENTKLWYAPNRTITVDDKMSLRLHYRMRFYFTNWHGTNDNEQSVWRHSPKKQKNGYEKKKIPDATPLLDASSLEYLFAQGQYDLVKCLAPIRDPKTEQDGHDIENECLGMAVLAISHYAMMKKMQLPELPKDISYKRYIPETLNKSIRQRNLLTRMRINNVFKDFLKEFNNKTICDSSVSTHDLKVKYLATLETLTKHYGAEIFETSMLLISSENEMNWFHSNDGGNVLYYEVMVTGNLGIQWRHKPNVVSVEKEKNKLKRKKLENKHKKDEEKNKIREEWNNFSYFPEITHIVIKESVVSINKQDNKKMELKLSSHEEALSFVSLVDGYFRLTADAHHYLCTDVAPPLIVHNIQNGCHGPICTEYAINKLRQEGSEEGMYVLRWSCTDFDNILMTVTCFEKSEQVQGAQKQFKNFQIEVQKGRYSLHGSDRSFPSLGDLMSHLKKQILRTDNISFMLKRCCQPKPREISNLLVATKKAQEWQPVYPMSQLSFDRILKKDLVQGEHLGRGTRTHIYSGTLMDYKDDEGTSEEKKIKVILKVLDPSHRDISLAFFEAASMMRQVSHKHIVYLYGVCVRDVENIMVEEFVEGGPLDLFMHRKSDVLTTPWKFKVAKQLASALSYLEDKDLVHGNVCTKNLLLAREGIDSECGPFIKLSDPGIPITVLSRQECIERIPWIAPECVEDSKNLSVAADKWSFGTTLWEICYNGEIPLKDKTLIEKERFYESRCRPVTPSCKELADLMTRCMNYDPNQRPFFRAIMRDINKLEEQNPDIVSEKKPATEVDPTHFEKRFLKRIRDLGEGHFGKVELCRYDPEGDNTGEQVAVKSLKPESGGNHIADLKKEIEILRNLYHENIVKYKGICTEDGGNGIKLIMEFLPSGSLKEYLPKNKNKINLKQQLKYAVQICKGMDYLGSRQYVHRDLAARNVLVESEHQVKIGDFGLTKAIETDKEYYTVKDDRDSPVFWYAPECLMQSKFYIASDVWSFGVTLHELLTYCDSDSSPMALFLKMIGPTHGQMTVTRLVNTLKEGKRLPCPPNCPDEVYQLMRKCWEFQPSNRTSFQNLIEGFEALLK

SMILES	IC50 (JAK1)	IC50 (JAK2)	IC50 (JAK3)	IC50 (Human Tyk2 kinase domain)	IC50 (JAK1; [1])
CCC(CC)n1cc(-c2nc(-c3cnn(CCCN(C)C)c3)cn3nccc23)cn1 [Example 12, N,N-dimethyl-3-(4-(4-(1-(pentan-3-yl)-1H-pyrazol-4-yl)pyrazolo[1,5-a]pyrazin-6-yl)-1H-pyrazol-1-yl)propan-1-amine]	1 to 10 µM	0.1 to 1 µM	1 to 10 µM	0.1 to 1 µM	
CC[C@@H](C)n1cc(-c2nc(-c3cnn(C[C@@H](O)CO)c3)cn3nccc23)cn1 [Example 69, (R)-3-(4-(4-(1-((R)-sec-butyl)-1H-pyrazol-4-yl)pyrazolo[1,5-a]pyrazin-6-yl)-1H-pyrazol-1-yl)propane-1,2-diol]		0.1 to 1 µM	1 to 10 µM	0.1 to 1 µM	1 to 10 µM
CCC(CC)n1cc(-c2nc(-c3cnn(CC(O)CC(F)(F)F)c3)cn3nccc23)cn1 (stereo not drawn) [Example 111, 4,4,4-trifluoro-1-(4-(4-(1-(pentan-3-yl)-1H-pyrazol-4-yl)pyrazolo[1,5-a]pyrazin-6-yl)-1H-pyrazol-1-yl)butan-2-ol]	0.1 to 1 µM	0.01 to 0.1 µM	1 to 10 µM	0.01 to 0.1 µM	
CCC(CC)n1cc(-c2nc(-c3cnn(CCCO)c3)cn3nccc23)cn1 [Example 19, 3-(4-(4-(1-(pentan-3-yl)-1H-pyrazol-4-yl)pyrazolo[1,5-a]pyrazin-6-yl)-1H-pyrazol-1-yl)propan-1-ol]	1 to 10 µM	1 to 10 µM	1 to 10 µM	1 to 10 µM	
CCC(CC)n1cc(-c2nc(-c3cnn(C4CN(C(=O)[C@H](C)O)C4)c3)cn3nccc23)cn1 [Example 173, (S)-2-hydroxy-1-(3-(4-(4-(1-(pentan-3-yl)-1H-pyrazol-4-yl)pyrazolo[1,5-a]pyrazin-6-yl)-1H-pyrazol-1-yl)azetidin-1-yl)propan-1-one]	0.1 to 1 µM	0.01 to 0.1 µM	1 to 10 µM	0.01 to 0.1 µM	
Cn1cc(-c2cn3nccc3c(-c3cnn(C4(C)CCCC4)c3)n2)cn1 [Example 49, 6-(1-methyl-1H-pyrazol-4-yl)-4-(1-(1-methylcyclopentyl)-1H-pyrazol-4-yl)pyrazolo[1,5-a]pyrazine]	1 to 10 µM	1 to 10 µM	1 to 10 µM	0.1 to 1 µM	
CCC(CC)n1cc(-c2nc(-c3cnn(CCN4CCNC(=O)C4)c3)cn3nccc23)cn1 [Example 144, 4-(2-(4-(4-(1-(pentan-3-yl)-1H-pyrazol-4-yl)pyrazolo[1,5-a]pyrazin-6-yl)-1H-pyrazol-1-yl)ethyl)piperazin-2-one]	0.1 to 1 µM	0.01 to 0.1 µM	1 to 10 µM	0.01 to 0.1 µM	
CCC(CC)n1cc(-c2nc(-c3cnn(C[C@@H](N)CO)c3)cn3nccc23)cn1 [Example 130, (R)-2-amino-3-(4-(4-(1-(pentan-3-yl)-1H-pyrazol-4-yl)pyrazolo[1,5-a]pyrazin-6-yl)-1H-pyrazol-1-yl)propan-1-ol]	1 to 10 µM	0.01 to 0.1 µM	1 to 10 µM	0.01 to 0.1 µM	
CCC[C@@H](C)n1cc(-c2nc(-c3cnn(C(CO)CO)c3)cn3nccc23)cn1 [Example 83, (R)-2-(4-(4-(1-(pentan-2-yl)-1H-pyrazol-4-yl)pyrazolo[1,5-a]pyrazin-6-yl)-1H-pyrazol-1-yl)propane-1,3-diol]	1 to 10 µM	0.01 to 0.1 µM	1 to 10 µM	0.01 to 0.1 µM	
CC1(C)CCC[C@H]1n1cc(-c2nc(-c3cnn(C[C@@H](O)CO)c3)cn3nccc23)cn1 (single isomer, unassigned) [Example 96]		0.1 to 1 µM	1 to 10 µM	1 to 10 µM	1 to 10 µM
CCC(CC)n1cc(-c2nc(-c3cnn(C4CN(C(=O)C(C)C)C4)c3)cn3nccc23)cn1 [Example 42, 2-methyl-1-(3-(4-(4-(1-(pentan-3-yl)-1H-pyrazol-4-yl)pyrazolo[1,5-a]pyrazin-6-yl)-1H-pyrazol-1-yl)azetidin-1-yl)propan-1-one]	1 to 10 µM	0.01 to 0.1 µM	1 to 10 µM	0.01 to 0.1 µM	
C[C@H](CC(F)(F)F)n1cc(-c2nc(-c3cnn(C[C@@H](O)CO)c3)cn3nccc23)cn1 [Example 194, (R)-3-(4-(4-(1-((R)-4,4,4-trifluorobutan-2-yl)-1H-pyrazol-4-yl)pyrazolo[1,5-a]pyrazin-6-yl)-1H-pyrazol-1-yl)propane-1,2-diol hydrochloride]		0.1 to 1 µM	1 to 10 µM	0.1 to 1 µM	1 to 10 µM
CCC(n1cc(-c2nc(-c3cnn(C[C@@H](O)CO)c3)cn3nccc23)cn1)C(F)(F)F (stereo partly drawn) [Example 193, (2R)-3-(4-(4-(1-(1,1,1-trifluorobutan-2-yl)-1H-pyrazol-4-yl)pyrazol[1,5-a]pyrazin-6-yl)-1H-pyrazol-1-yl)propane-1,2-diol]		0.1 to 1 µM	1 to 10 µM	0.1 to 1 µM	1 to 10 µM
CCC(CC(F)(F)F)n1cc(-c2nc(-c3cnn(C(CO)CO)c3)cn3nccc23)cn1 (single isomer, unassigned) [Example 212]	1 to 10 µM	0.1 to 1 µM	1 to 10 µM	0.1 to 1 µM	
CCC(CC)n1cc(-c2nc(-c3cnn(CC(=O)N(C)C)c3)cn3nccc23)cn1 [Example 5, N,N-dimethyl-2-(4-(4-(1-(pentan-3-yl)-1H-pyrazol-4-yl)pyrazolo[1,5-a]pyrazin-6-yl)-1H-pyrazol-1-yl)acetamide]	0.1 to 1 µM	0.1 to 1 µM	1 to 10 µM	0.01 to 0.1 µM	
CCC(CC)n1cc(-c2nc(-c3cnn(CCN4CCOCC4)c3)cn3nccc23)cn1 [Example 3, 4-(2-(4-(4-(1-(pentan-3-yl)-1H-pyrazol-4-yl)pyrazolo[1,5-a]pyrazin-6-yl)-1H-pyrazol-1-yl)ethyl)morpholine]	1 to 10 µM	0.01 to 0.1 µM	1 to 10 µM	0.01 to 0.1 µM	
CCC(CC)n1cc(-c2nc(-c3cnn(C[C@H](O)CNC)c3)cn3nccc23)cn1 [Example 100, (R)-1-(methylamino)-3-(4-(4-(1-(pentan-3-yl)-1H-pyrazol-4-yl)pyrazolo[1,5-a]pyrazin-6-yl)-1H-pyrazol-1-yl)propan-2-ol]		0.01 to 0.1 µM	1 to 10 µM	0.01 to 0.1 µM	1 to 10 µM
CCC(CC)n1cc(-c2nc(-c3cnn(CC(O)C(C)C)c3)cn3nccc23)cn1 (stereo not drawn) [Example 113, 3-methyl-1-(4-(4-(1-(pentan-3-yl)-1H-pyrazol-4-yl)pyrazolo[1,5-a]pyrazin-6-yl)-1H-pyrazol-1-yl)butan-2-ol]	1 to 10 µM	0.1 to 1 µM	1 to 10 µM	0.01 to 0.1 µM	
CCC(CC)n1cc(-c2nc(-c3cnn(C4CN(C(=O)N(C)C)C4)c3)cn3nccc23)cn1 [Example 40, N,N-dimethyl-3-(4-(4-(1-(pentan-3-yl)-1H-pyrazol-4-yl)pyrazolo[1,5-a]pyrazin-6-yl)-1H-pyrazol-1-yl)azetidine-1-carboxamide]	0.1 to 1 µM	0.01 to 0.1 µM	1 to 10 µM	0.01 to 0.1 µM	
CCC(CC)n1cc(-c2nc(-c3cnn(C(CO)CO)c3)cn3nccc23)cn1 [Example 81, 2-(4-(4-(1-(pentan-3-yl)-1H-pyrazol-4-yl)pyrazolo[1,5-a]pyrazin-6-yl)-1H-pyrazol-1-yl)propane-1,3-diol]	0.1 to 1 µM	0.01 to 0.1 µM	1 to 10 µM	0.01 to 0.1 µM	
C[C@@H]1CCCC[C@H]1n1cc(-c2nc(-c3cnn(C(CO)CO)c3)cn3nccc23)cn1 (single isomer, unassigned) [Example 150]	1 to 10 µM	0.01 to 0.1 µM	1 to 10 µM	0.01 to 0.1 µM	
CCC(CC)n1cc(-c2nc(-c3cnn(C[C@H](O)COC)c3)cn3nccc23)cn1 [Example 108, (S)-1-methoxy-3-(4-(4-(1-(pentan-3-yl)-1H-pyrazol-4-yl)pyrazolo[1,5-a]pyrazin-6-yl)-1H-pyrazol-1-yl)propan-2-ol]	0.1 to 1 µM	0.01 to 0.1 µM	1 to 10 µM	0.01 to 0.1 µM	
CC(C)C[C@@H](C)n1cc(-c2nc(-c3cnn(C(CO)CO)c3)cn3nccc23)cn1 [Example 88, (R)-2-(4-(4-(1-(4-methylpentan-2-yl)-1H-pyrazol-4-yl)pyrazolo[1,5-a]pyrazin-6-yl)-1H-pyrazol-1-yl)propane-1,3-diol]	1 to 10 µM	0.1 to 1 µM	1 to 10 µM	0.1 to 1 µM	
CCC(CC)n1cc(-c2nc(-c3cnn(C4CN(C(=O)NC)C4)c3)cn3nccc23)cn1 [Example 39, N-methyl-3-(4-(4-(1-(pentan-3-yl)-1H-pyrazol-4-yl)pyrazolo[1,5-a]pyrazin-6-yl)-1H-pyrazol-1-yl)azetidine-1-carboxamide]	0.01 to 0.1 µM	0.01 to 0.1 µM	1 to 10 µM	0.01 to 0.1 µM	
